Measurements reported in patent US20210122730A1, “GLUCOCORTICOID RECEPTOR MODULATORS” (ORIC Pharmaceuticals, Inc., priority 2017, published 2021).

How the values were obtained:
GR = target: T1, GR (Homo sapiens, UniProt P04150); assay: In Vitro GR Luciferase Reporter Assay (antagonist mode, CHO-K1-GR-MMTV-Luc reporter cells); type: cell-based; details: antagonist mode, 10 nM Dexamethasone
T1 construct: expressed in transfected cells; host or cells: CHO-K1
T1 sequence (P04150 1-777): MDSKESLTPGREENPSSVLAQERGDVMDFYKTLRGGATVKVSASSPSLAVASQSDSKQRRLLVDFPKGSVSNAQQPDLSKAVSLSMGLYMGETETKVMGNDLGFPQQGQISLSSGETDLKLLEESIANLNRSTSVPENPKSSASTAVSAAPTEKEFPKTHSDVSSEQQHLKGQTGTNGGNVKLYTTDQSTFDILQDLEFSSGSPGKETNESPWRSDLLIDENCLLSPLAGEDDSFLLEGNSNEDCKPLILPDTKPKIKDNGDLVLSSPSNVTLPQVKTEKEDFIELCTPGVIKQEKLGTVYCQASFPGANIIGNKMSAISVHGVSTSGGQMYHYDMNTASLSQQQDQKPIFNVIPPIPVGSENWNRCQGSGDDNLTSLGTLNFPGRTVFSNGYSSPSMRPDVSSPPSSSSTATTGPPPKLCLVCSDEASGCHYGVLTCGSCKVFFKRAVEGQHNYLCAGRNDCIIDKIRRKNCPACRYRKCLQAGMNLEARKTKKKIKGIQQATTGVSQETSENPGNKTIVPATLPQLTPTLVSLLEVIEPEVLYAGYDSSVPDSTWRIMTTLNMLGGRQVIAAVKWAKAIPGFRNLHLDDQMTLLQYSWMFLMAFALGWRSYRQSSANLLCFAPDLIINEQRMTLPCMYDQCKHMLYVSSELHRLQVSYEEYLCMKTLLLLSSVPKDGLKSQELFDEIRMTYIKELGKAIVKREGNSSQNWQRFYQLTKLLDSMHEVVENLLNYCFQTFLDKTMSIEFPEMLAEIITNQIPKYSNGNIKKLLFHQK
Procedure, shortened: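 Antagonist mode: compounds (8 serial 1:5 dilutions) added to GR-MMTV-luciferase CHO-K1 reporter cells co-exposed to 10 nM dexamethasone final, in phenol red-free DMEM plus 10% CSS. After roughly 18-24 h at 37° C, OneGlo luminescence read and IC50 calculated.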

CYP2C8 = target: T2, CYP2C8 (Homo sapiens, UniProt P10632); assay: CYP Inhibition Assay (CYP2C8, human liver microsomes, paclitaxel substrate); type: in vitro ADME; details: pH 7.4; pooled human liver microsomes 0.1 mg/mL, probe substrate paclitaxel
T2 construct: Pooled human microsomes were obtained from Sekisui XenoTech, KS; tissue Sekisui XenoTech, KS; host or cells: pooled human liver microsomes
T2 sequence (P10632 1-490): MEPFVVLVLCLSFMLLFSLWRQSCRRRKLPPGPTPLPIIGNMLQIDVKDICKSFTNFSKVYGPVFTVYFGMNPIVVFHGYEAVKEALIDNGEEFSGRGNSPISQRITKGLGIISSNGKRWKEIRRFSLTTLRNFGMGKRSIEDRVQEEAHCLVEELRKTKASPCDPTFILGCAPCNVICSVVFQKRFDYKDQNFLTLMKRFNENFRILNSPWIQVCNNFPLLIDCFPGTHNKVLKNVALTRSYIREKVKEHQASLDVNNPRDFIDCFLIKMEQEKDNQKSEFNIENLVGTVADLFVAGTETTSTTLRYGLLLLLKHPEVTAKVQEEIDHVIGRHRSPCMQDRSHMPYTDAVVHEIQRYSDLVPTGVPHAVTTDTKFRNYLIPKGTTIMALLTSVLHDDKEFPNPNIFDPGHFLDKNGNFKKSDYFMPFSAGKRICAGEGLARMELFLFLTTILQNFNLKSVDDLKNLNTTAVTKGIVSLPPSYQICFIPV
Procedure, shortened: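 CYP2C8 activity read as 6α-hydroxypaclitaxel formation by LC-MS/MS, with % inhibition versus vehicle control. Reactions ran 5 min at 37° C, pH 7.4 phosphate buffer, 0.1 mg/mL pooled human liver microsomes, 1 mM NADPH, duplicate wells.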

Compound | IC50 (GR) [nM] | inhibition at 5 min (CYP2C8) [%]
Cn1cc(S(=O)(=O)N(C2CC2)[C@H]2CCC3=Cc4c(cnn4-c4ccc(F)cc4)C[C@]3(C(=O)c3cc(F)ccn3)C2)nn1 [Example 265, N-cyclopropyl-N-((4aS,6S)-1-(4-fluorophenyl)-4a-(4-fluoropicolinoyl)-4,4a,5,6,7,8-hexahydro-1H-benzo[f]indazol-6-yl)-1-methyl-1H-1,2,3-triazole-4-sulfonamide] | ≤ 100 | 50 to 75
Cn1ccnc1S(=O)(=O)N(C1CC1)[C@H]1CCC2=Cc3c(cnn3-c3ccc(F)cc3)C[C@]2(C(=O)c2ncc(C(F)(F)F)s2)C1 [Example 266, N-cyclopropyl-N-((4aS,6S)-1-(4-fluorophenyl)-4a-(5 (trifluoromethyl)thiazole-2-carbonyl)-4,4a,5,6,7,8-hexahydro-1H-benzo[f]indazol-6-yl)-1-methyl-1H-imidazole-2-sulfonamide] | ≤ 100 | 75 to 90
Cn1ccc(S(=O)(=O)N(C2CC(F)(F)C2)[C@H]2CCC3=Cc4c(cnn4-c4ccc(F)cc4)C[C@]3(C(=O)c3cc(F)ccn3)C2)n1 [Example 267, N-(3,3-difluorocyclobutyl)-N-((4aS,6S)-1-(4-fluorophenyl)-4a-(4-fluoropicolinoyl)-4,4a,5,6,7,8-hexahydro-1H-benzo[f]indazol-6-yl)-1-methyl-1H-pyrazole-3-sulfonamide] | ≤ 100 | 50 to 75
Cn1cc(S(=O)(=O)N(C2CC2)[C@H]2CCC3=Cc4c(cnn4-c4ccc(F)cc4)C[C@]3(C(=O)c3cc(Cl)ccn3)C2)nn1 [Example 268, N-((4aS,6S)-4a-(4-chloropicolinoyl)-1-(4-fluorophenyl)-4,4a,5,6,7,8-hexahydro-1H-benzo[f]indazol-6-yl)-N-cyclopropyl-1-methyl-1H-1,2,3-triazole-4-sulfonamide] | ≤ 100 | 50 to 75
CC(C)N([C@H]1CCC2=Cc3c(cnn3-c3ccc(F)cc3)C[C@]2(C(=O)c2cc(Cl)ccn2)C1)S(=O)(=O)c1cnn(C)n1 [Example 269, N-((4aS,6S)-4a-(4-chloropicolinoyl)-1-(4-fluorophenyl)-4,4a,5,6,7,8-hexahydro-1H-benzo[f]indazol-6-yl)-N-isopropyl-2-methyl-2H-1,2,3-triazole-4-sulfonamide] | ≤ 100 | 75 to 90
Cn1ccc(S(=O)(=O)[C@H]2CCC3=Cc4c(cnn4-c4ccc(F)cc4)C[C@]3(C(=O)c3ccc(C(F)(F)F)cn3)C2)n1 [Example 272, ((4aS,6S)-1-(4-fluorophenyl)-6-((1-methyl-1H-pyrazol-3-yl)sulfonyl)-1,4,5,6,7,8-hexahydro-4aH-benzo[f]indazol-4a-yl)(5-(trifluoromethyl)pyridin-2-yl)methanone] | ≤ 100 | ≤ 25
O=C(c1cc(C(F)(F)F)ccn1)[C@]12Cc3cnn(-c4ccc(F)cc4)c3C=C1CC[C@H](N(CC1CC1)S(=O)(=O)c1ccc(F)cc1)C2 [Example 273, N-(cyclopropylmethyl)-4-fluoro-N-((4aS,6S)-1-(4-fluorophenyl)-4a-(4-(trifluoromethyl)picolinoyl)-4,4a,5,6,7,8-hexahydro-1H-benzo[f]indazol-6-yl)benzenesulfonamide] | ≤ 100 | ≤ 25
CC(C)N([C@H]1CCC2=Cc3c(cnn3-c3ccc(F)cc3)C[C@]2(C(=O)c2cc(C(F)(F)F)ccn2)C1)S(=O)(=O)c1ccc(Cl)nc1 [Example 279, 6-chloro-N-((4aS,6S)-1-(4-fluorophenyl)-4a-(4-(trifluoromethyl)picolinoyl)-4,4a,5,6,7,8-hexahydro-1H-benzo[f]indazol-6-yl)-N-isopropylpyridine-3-sulfonamide] | ≤ 100 | 50 to 75
Cn1cc(S(=O)(=O)N(CC(F)(F)F)[C@H]2CCC3=Cc4c(cnn4-c4ccc(F)cc4)C[C@]3(C(=O)c3cc(Cl)ccn3)C2)cn1 [Example 280, N-((4aS,6S)-4a-(4-chloropicolinoyl)-1-(4-fluorophenyl)-4,4a,5,6,7,8-hexahydro-1H-benzo[f]indazol-6-yl)-1-methyl-N-(2,2,2-trifluoroethyl)-1H-pyrazole-4-sulfonamide] | ≤ 100 | 25 to 50
CC(C)N([C@H]1CCC2=Cc3c(cnn3-c3ccc(F)cc3)C[C@]2(C(=O)c2ncc(C(F)(F)F)s2)C1)S(=O)(=O)c1cn(C)nn1 [Example 282, N-((4aS,6S)-1-(4-fluorophenyl)-4a-(5-(trifluoromethyl)thiazole-2-carbonyl)-4,4a,5,6,7,8-hexahydro-1H-benzo[f]indazol-6-yl)-N-isopropyl-1-methyl-1H-1,2,3-triazole-4-sulfonamide] | ≤ 100 | 25 to 50
CC(C)N([C@H]1CCC2=Cc3c(cnn3-c3ccc(F)cc3)C[C@]2(C(=O)c2ncc(C(F)(F)F)s2)C1)S(=O)(=O)c1ccc(Cl)nc1 [Example 283, 6-chloro-N-((4aS,6S)-1-(4-fluorophenyl)-4a-(5-(trifluoromethyl)thiazole-2-carbonyl)-4,4a,5,6,7,8-hexahydro-1H-benzo[f]indazol-6-yl)-N-isopropylpyridine-3-sulfonamide] | ≤ 100 | ≤ 25
CC(C)N([C@H]1CCC2=Cc3c(cnn3-c3ccc(F)cc3)C[C@]2(C(=O)c2cc(C(F)(F)F)ccn2)C1)S(=O)(=O)c1cn(C)nn1 [Example 286, N-((4aS,6S)-1-(4-fluorophenyl)-4a-(4-(trifluoromethyl)picolinoyl)-4,4a,5,6,7,8-hexahydro-1H-benzo[f]indazol-6-yl)-N-isopropyl-1-methyl-1H-1,2,3-triazole-4-sulfonamide] | ≤ 100 | 75 to 90
O=C(c1cc(C(F)(F)F)ccn1)[C@]12Cc3cnn(-c4ccc(F)cc4)c3C=C1CC[C@H](N(C1CC1)S(=O)(=O)c1ccc(Cl)cn1)C2 [Example 287, 5-chloro-N-cyclopropyl-N-((4aS,6S)-1-(4-fluorophenyl)-4a-(4-(trifluoromethyl)picolinoyl)-4,4a,5,6,7,8-hexahydro-1H-benzo[f]indazol-6-yl)pyridine-2-sulfonamide] | ≤ 100 | 25 to 50
Cn1ccc(S(=O)(=O)N([C@H]2CCC3=Cc4c(cnn4-c4ccc(F)cc4)C[C@]3(C(=O)c3cc(Cl)ccn3)C2)[C@H]2C[C@@](C)(O)C2)n1 [Example 288, N-((4aS,6S)-4a-(4-chloropicolinoyl)-1-(4-fluorophenyl)-4,4a,5,6,7,8-hexahydro-1H-benzo[f]indazol-6-yl)-N-((1s,3R)-3-hydroxy-3-methylcyclobutyl)-1-methyl-1H-pyrazole-3-sulfonamide] | ≤ 100 | ≤ 25
Cn1ccc(S(=O)(=O)[C@@]2(F)CCC3=Cc4c(cnn4-c4ccc(F)cc4)C[C@]3(C(=O)c3ccc(C(F)(F)F)cn3)C2)n1 [Example 289, ((4aS,6S)-6-fluoro-1-(4-fluorophenyl)-6-((1-methyl-1H-pyrazol-3-yl)sulfonyl)-1,4,5,6,7,8-hexahydro-4aH-benzo[f]indazol-4a-yl)(5-(trifluoromethyl)pyridin-2-yl)methanone] | ≤ 100 | ≤ 25
